Source: US12503436B2, “Compounds and compositions for treating conditions associated with STING activity” (NOVARTIS PHARMA AG, priority 2021, dated 2025)

Biological target: STING (Homo sapiens, UniProt Q86WV6, G230A/H232R/R293Q/R71H)
Assay: STING reporter assay in THP1-Dual KO-IFNAR2 cells (2′3′cGAMP stimulation, luciferase reporter)
Format: cell-based
Conditions: 15 μM 2′3′cGAMP stimulation, 24 h, read-out: Pharmaron, THP1_IFNAR2 STING 24 h Luci Normalized: GeoMean EC50
Method in brief: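 EC50 from secreted luciferase (QUANTI-Luc Plus luminescence of supernatant) after 24 h at 37 °C, 5% CO2. Cells: THP1-Dual KO-IFNAR2, treated with compound (0.0017-100 μM final) plus lipofected 2′3′cGAMP at 15 μM final.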

Chain of STING (Q86WV6 whole entry R71H/G230A/H232R/R293Q): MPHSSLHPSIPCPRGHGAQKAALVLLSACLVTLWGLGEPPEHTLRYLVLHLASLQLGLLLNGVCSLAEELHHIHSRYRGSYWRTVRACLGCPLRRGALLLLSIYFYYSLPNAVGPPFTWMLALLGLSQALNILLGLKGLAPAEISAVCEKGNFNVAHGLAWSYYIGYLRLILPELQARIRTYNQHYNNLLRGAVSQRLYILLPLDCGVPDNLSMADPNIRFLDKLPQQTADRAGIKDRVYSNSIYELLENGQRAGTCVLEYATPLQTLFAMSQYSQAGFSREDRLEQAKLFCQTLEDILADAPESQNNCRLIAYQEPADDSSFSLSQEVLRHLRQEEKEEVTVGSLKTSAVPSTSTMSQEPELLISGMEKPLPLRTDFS

Row | Compound | EC50
1 | CC1(C(=O)Nc2c[nH]c3ccc(OCc4ccc(C(F)(F)F)cc4)cc23)CC1 [Compound 301, 1-methyl-N-(5-((4-(trifluoromethyl)benzyl)oxy)-1H-indol-3-yl)cyclopropane-1-carboxamide] | 200 to 1000 nM
2 | O=C(Nc1c[nH]c2ccc(O[C@H]3C[C@@H](c4ccc(C(F)(F)F)cc4)C3)cc12)C1(F)CC1 [Compound 302, 1-fluoro-N-(5-(cis-3-(4-(trifluoromethyl)phenyl)cyclobutoxy)-1H-indol-3-yl)cyclopropane-1-carboxamide] | 200 to 1000 nM
3 | CN1CC(C(=O)Nc2c[nH]c3ccc(OCC[C@@H]4C[C@@H]5CN(CC(F)(F)F)C[C@@H]5C4)cc23)C1 [Compound 303, 1-methyl-N-(5-(2-((3aR,5r,6aS)-2-(2,2,2-trifluoroethyl)octahydrocyclopenta[c]pyrrol-5-yl)ethoxy)-1H-indol-3-yl)azetidine-3-carboxamide] | 5000 to 100000 nM
4 | N#CC1CCC1C(=O)Nc1c[nH]c2ccc(OCC[C@@H]3C[C@@H]4CN(CC(F)(F)F)C[C@@H]4C3)cc12 (stereo partly drawn) [Compound 304, 2-cyano-N-(5-(2-((3aR,5r,6aS)-2-(2,2,2-trifluoroethyl)octahydrocyclopenta[c]pyrrol-5-yl)ethoxy)-1H-indol-3-yl)cyclobutane-1-carboxamide] | 200 to 1000 nM
5 | COCC1(C(=O)Nc2c[nH]c3ccc(OCC[C@@H]4C[C@@H]5CN(CC(F)(F)F)C[C@@H]5C4)cc23)CC1 [Compound 305, 1-(methoxymethyl)-N-(5-(2-((3aR,5r,6aS)-2-(2,2,2-trifluoroethyl)octahydrocyclopenta[c]pyrrol-5-yl)ethoxy)-1H-indol-3-yl)cyclopropane-1-carboxamide] | 1000 to 5000 nM
6 | CC1(C(=O)Nc2c[nH]c3ccc(OCC[C@@H]4C[C@@H]5CN(CC(F)(F)F)C[C@@H]5C4)cc23)CCOC1 (stereo partly drawn) [Compound 306, 3-methyl-N-(5-(2-((3aR,5r,6aS)-2-(2,2,2-trifluoroethyl)octahydrocyclopenta[c]pyrrol-5-yl)ethoxy)-1H-indol-3-yl)tetrahydrofuran-3-carboxamide] | 200 to 1000 nM
7 | O=C(Nc1c[nH]c2ccc(OCC[C@@H]3C[C@@H]4CN(CC(F)(F)F)C[C@@H]4C3)cc12)C1CC1(F)F (stereo partly drawn) [Compound 307, 2,2-difluoro-N-(5-(2-((3aR,5r,6aS)-2-(2,2,2-trifluoroethyl)octahydrocyclopenta[c]pyrrol-5-yl)ethoxy)-1H-indol-3-yl)cyclopropane-1-carboxamide] | 200 to 1000 nM
8 | O=C(Nc1c[nH]c2ccc(CCOc3ccc(C(F)(F)F)cc3)cc12)C1CC(CO)C1 (stereo not shown) [Compound 308, 3-(hydroxymethyl)-N-(5-(2-(4-(trifluoromethyl)phenoxy)ethyl)-1H-indol-3-yl)cyclobutane-1-carboxamide] | 40 to 200 nM
9 | CC1(C(=O)Nc2c[nH]c3ccc(CCOc4ccc(C(F)(F)F)cc4)cc23)CCC1 [Compound 309, 1-methyl-N-(5-(2-(4-(trifluoromethyl)phenoxy)ethyl)-1H-indol-3-yl)cyclobutane-1-carboxamide] | 40 to 200 nM
10 | O=C(Nc1c[nH]c2ccc(CCOc3ccc(C(F)(F)F)cc3)cc12)C1CC(O)C1 (stereo not shown) [Compound 310, 3-hydroxy-N-(5-(2-(4-(trifluoromethyl)phenoxy)ethyl)-1H-indol-3-yl)cyclobutane-1-carboxamide] | 40 to 200 nM
11 | CN1CC(C(=O)Nc2c[nH]c3ccc(OCCc4ccc(C(F)(F)F)cc4)cc23)C1 [Compound 311, 1-methyl-N-(5-(4-(trifluoromethyl)phenethoxy)-1H-indol-3-yl)azetidine-3-carboxamide] | 1000 to 5000 nM
12 | O=C(Nc1c[nH]c2ccc(OCCc3ccc(C(F)(F)F)cc3)cc12)C1CC(CO)C1 (stereo not shown) [Compound 312, 3-(hydroxymethyl)-N-(5-(4-(trifluoromethyl)phenethoxy)-1H-indol-3-yl)cyclobutane-1-carboxamide] | 40 to 200 nM
13 | CC(=O)Nc1c[nH]c2ccc(OCC[C@@H]3C[C@@H]4CN(CC(F)F)C[C@@H]4C3)cc12 [Compound 313, N-(5-(2-((3aR,5r,6aS)-2-(2,2-difluoroethyl)octahydrocyclopenta[c]pyrrol-5-yl)ethoxy)-1H-indol-3-yl)acetamide] | 1000 to 5000 nM
14 | CC(C)(C)CC(=O)Nc1c[nH]c2ccc(OCc3ccc(C(F)(F)F)cc3)cc12 [Compound 314, 3,3-dimethyl-N-(5-((4-(trifluoromethyl)benzyl)oxy)-1H-indol-3-yl)butanamide] | 200 to 1000 nM
15 | O=C(Nc1c[nH]c2ccc(OCc3ccc(C(F)(F)F)cc3)cc12)C1(C(F)(F)F)CC1 [Compound 315, 1-(trifluoromethyl)-N-(5-((4-(trifluoromethyl)benzyl)oxy)-1H-indol-3-yl)cyclopropane-1-carboxamide] | 200 to 1000 nM
16 | CC(C)(C)C(=O)Nc1c[nH]c2ccc(OCc3ccc(C(F)(F)F)cc3)cc12 [Compound 316, N-(5-((4-(trifluoromethyl)benzyl)oxy)-1H-indol-3-yl)pivalamide] | 200 to 1000 nM
17 | O=C(Nc1c[nH]c2ccc(OCc3ccc(C(F)(F)F)cc3)cc12)C1CC1 [Compound 317, N-(5-((4-(trifluoromethyl)benzyl)oxy)-1H-indol-3-yl)cyclopropanecarboxamide] | 200 to 1000 nM

Row | Compound | EC50
18 | O=C(Nc1c[nH]c2ccc(OCc3ccc(C(F)(F)F)cc3)cc12)C1CC1(F)Cl (stereo not shown) [Compound 318, 2-chloro-2-fluoro-N-(5-((4-(trifluoromethyl)benzyl)oxy)-1H-indol-3-yl)cyclopropane-1-carboxamide] | 200 to 1000 nM
19 | COCC1(C(=O)Nc2c[nH]c3ccc(OCc4ccc(C(F)(F)F)cc4)cc23)CC1 [Compound 319, 1-(methoxymethyl)-N-(5-((4-(trifluoromethyl)benzyl)oxy)-1H-indol-3-yl)cyclopropane-1-carboxamide] | 200 to 1000 nM
20 | C[C@H]1C[C@H](C(=O)Nc2c[nH]c3ccc(OCc4ccc(C(F)(F)F)cc4)cc23)C1 [Compound 320, trans-3-methyl-N-(5-((4-(trifluoromethyl)benzyl)oxy)-1H-indol-3-yl)cyclobutane-1-carboxamide] | 200 to 1000 nM
21 | C[C@H]1C[C@@H](C(=O)Nc2c[nH]c3ccc(OCc4ccc(C(F)(F)F)cc4)cc23)C1 [Compound 321, cis-3-methyl-N-(5-((4-(trifluoromethyl)benzyl)oxy)-1H-indol-3-yl)cyclobutane-1-carboxamide] | 200 to 1000 nM
22 | O=C(Nc1c[nH]c2ccc(OCc3ccc(C(F)(F)F)cc3)cc12)C1CC(Cl)C1 (stereo not shown) [Compound 322, 3-chloro-N-(5-((4-(trifluoromethyl)benzyl)oxy)-1H-indol-3-yl)cyclobutane-1-carboxamide] | 200 to 1000 nM
23 | CC1(F)CC(C(=O)Nc2c[nH]c3ccc(OCc4ccc(C(F)(F)F)cc4)cc23)C1 (stereo not shown) [Compound 323, 3-fluoro-3-methyl-N-(5-((4-(trifluoromethyl)benzyl)oxy)-1H-indol-3-yl)cyclobutane-1-carboxamide] | 200 to 1000 nM
24 | O=C(Nc1c[nH]c2ccc(OCc3ccc(C(F)(F)F)cc3)cc12)[C@H]1C[C@@H](O)C1 [Compound 324, cis-3-hydroxy-N-(5-((4-(trifluoromethyl)benzyl)oxy)-1H-indol-3-yl)cyclobutane-1-carboxamide] | 200 to 1000 nM
25 | CC1(C(=O)Nc2c[nH]c3ccc(OCc4ccc(C(F)(F)F)cc4)cc23)CCCO1 (stereo not shown) [Compound 325, 2-methyl-N-(5-((4-(trifluoromethyl)benzyl)oxy)-1H-indol-3-yl)tetrahydrofuran-2-carboxamide] | 200 to 1000 nM
26 | O=C(Nc1c[nH]c2ccc(OCc3ccc(C(F)(F)F)cc3)cc12)C1CC(F)C1 (stereo not shown) [Compound 326, 3-fluoro-N-(5-((4-(trifluoromethyl)benzyl)oxy)-1H-indol-3-yl)cyclobutane-1-carboxamide] | 200 to 1000 nM
27 | CC1(C)CC(C(=O)Nc2c[nH]c3ccc(OCc4ccc(C(F)(F)F)cc4)cc23)C1 [Compound 327, 3,3-dimethyl-N-(5-((4-(trifluoromethyl)benzyl)oxy)-1H-indol-3-yl)cyclobutane-1-carboxamide] | 200 to 1000 nM
28 | CC1(C(=O)Nc2c[nH]c3ccc(OCc4ccc(C(F)(F)F)cc4)cc23)CCOCC1 [Compound 328, 4-methyl-N-(5-((4-(trifluoromethyl)benzyl)oxy)-1H-indol-3-yl)tetrahydro-2H-pyran-4-carboxamide] | 200 to 1000 nM
29 | O=C(Nc1c[nH]c2ccc(OCc3ccc(C(F)(F)F)cc3)cc12)C1CC(O)C1 (stereo not shown) [Compound 329, 3-hydroxy-N-(5-((4-(trifluoromethyl)benzyl)oxy)-1H-indol-3-yl)cyclobutane-1-carboxamide] | 200 to 1000 nM
30 | O=C(Nc1c[nH]c2ccc(OCc3ccc(C(F)(F)F)cc3)cc12)C1CC1(F)F (stereo not shown) [Compound 330, 2,2-difluoro-N-(5-((4-(trifluoromethyl)benzyl)oxy)-1H-indol-3-yl)cyclopropane-1-carboxamide] | 200 to 1000 nM
31 | O=C(Nc1c[nH]c2ccc(OCc3ccc(C(F)(F)F)cc3)cc12)C1(F)CC1 [Compound 331, 1-fluoro-N-(5-((4-(trifluoromethyl)benzyl)oxy)-1H-indol-3-yl)cyclopropane-1-carboxamide] | 1000 to 5000 nM
32 | COCC1(C(=O)Nc2c[nH]c3ccc(O[C@H]4C[C@@H](c5ccc(C(F)(F)F)cc5)C4)cc23)CC1 [Compound 333, 1-(methoxymethyl)-N-(5-(cis-3-(4-(trifluoromethyl)phenyl)cyclobutoxy)-1H-indol-3-yl)cyclopropane-1-carboxamide] | 1000 to 5000 nM
33 | C[C@H]1C[C@H](C(=O)Nc2c[nH]c3ccc(O[C@H]4C[C@@H](c5ccc(C(F)(F)F)cc5)C4)cc23)C1 [Compound 334, trans-3-methyl-N-(5-(cis-3-(4-(trifluoromethyl)phenyl)cyclobutoxy)-1H-indol-3-yl)cyclobutane-1-carboxamide] | 40 to 200 nM
34 | C[C@H]1C[C@@H](C(=O)Nc2c[nH]c3ccc(O[C@H]4C[C@@H](c5ccc(C(F)(F)F)cc5)C4)cc23)C1 [Compound 335, cis-3-methyl-N-(5-(cis-3-(4-(trifluoromethyl)phenyl)cyclobutoxy)-1H-indol-3-yl)cyclobutane-1-carboxamide] | 200 to 1000 nM
